Several values for one entry are separate records, joined by “and”; a condition that tells them apart may be missing. Equal entries are not always repeated. Activity calls are given as the source filed them.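 The calls were made as follows: active = compounds giving half or more protection of infected cells from virus-caused growth loss, again on retest; inactive = the rest.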 Where a SMILES comes first, the peptide text is derived from it. The star is where a group is joined. Boc = CC(C)(C)OC(=O)*
Test system: CEM cells HIV-1 protection, formazan growth assay
Test: NCI AIDS Antiviral Assay
Conditions: for IC50: measured here: growth of uninfected CEM cells
In short: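 Soluble formazan readout of cell growth; CEM cells ± HIV-1; 5 drug concs. ≥50% protection → retest; ≥50% again = moderately active; reproducible 100% = confirmed active.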

Row | SMILES | EC50 [µM] | IC50 | outcome
1 | CC[C@@]1(O)C[C@H](OC2CC(N(C)C)C(OC3CC(O)C(OC4CCC(=O)C(C)O4)C(C)O3)C(C)O2)c2c(cc3c(c2O)C(=O)c2c(O)ccc(O)c2C3=O)[C@H]1C(=O)OC (stereo partly drawn) | > 6.31 | 0.0055 µM and 0.0158 µM | –
2 | CCCCCCc1cc2cc(-c3csc(-c4ccc(OC)cc4)n3)c(=O)oc2cc1O | > 200 | 9.12 µM | –
3 | CC1=NOC2(C1)/C(=N/O)CCC/C2=N\O (stereo not drawn) | > 200 | > 200 µM | –
4 | Cn1nnnc1SCC1=C(C(=O)O)N2C(=O)C(NC(=O)C(OC=O)c3ccccc3)C2SC1 (stereo not drawn) | > 200 | > 200 µM | –
5 | O=c1ccc2ccc(O)cc2o1 | > 1550 | 302 µM | –
6 | C[n+]1ccccc1-c1nc(-c2cccc[n+]2C)nc(-c2cccc[n+]2C)n1 | > 200 | > 200 µM | –
7 | CCOC(=O)C(OP(=O)(OCC)OCC)C(F)(F)F (stereo not drawn) | > 200 | > 200 µM | –
8 | O=C(CC1(O)C(=O)Nc2ccc([N+](=O)[O-])cc21)c1ccncc1 (stereo not drawn) | > 20.9 | > 20.9 µM | –
9 | COc1ccccc1-n1c(NN)nc2ccc(Br)cc2c1=O | > 138 | 30.9 µM | –
10 | COc1ccc(-c2c(C(=O)Nc3ccccc3)c(-c3ccccc3)n(C3OC(CO)C(O)C(O)C3O)c(=S)c2C#N)cc1 (stereo not drawn) | > 200 | 107 µM | –
11 | S=C1NC2=C(CSC/C2=C\c2ccc(Cl)cc2)C(c2ccc(Cl)cc2)N1 (stereo not drawn) | > 200 | 15.8 µM | –
12 | CC(=O)OC1CC2C(=S)Nc3cc4c(cc3C(=O)N2C1)OCO4 (stereo not drawn) | > 200 | > 200 µM | –
13 | Cc1nc2ccccc2c(=O)n1-c1ccccc1Br | > 214 | > 214 µM | –
14 | CCCCCCC1C=CCCN1 (stereo not drawn) | – | – | inactive
15 | NC(CCC(=O)NC(CS)C(=O)NCC(=O)O)C(=O)O (stereo not drawn) | > 288 | > 288 µM | –
16 | O=c1cc(-c2ccccc2)oc2cc(OCCCOc3ccc4c(=O)cc(-c5ccccc5)oc4c3)ccc12 | > 3.89 | > 3.89 µM | –
17 | CCCCCC(C)(O)C1=NCCN1 (stereo not drawn) | > 200 | > 200 µM | –
18 | Cc1ncc(C(N)=O)c2c1OC(C)(C)OC2 | > 200 | > 200 µM | –
19 | Cc1ccc(-c2cn3c(nc4ccccc43)c(-c3ccccc3)n2)cc1 | > 200 | 174 µM | –
20 | CC12Nc3ccccc3C1=C(c1ccccc1)CC1C(=O)OC(=O)C12 (stereo not drawn) | > 15.8 | > 15.8 µM | –
21 | O=C(/C=C/c1ccccc1Cl)c1cccc2ccccc12 | > 9.33 | > 9.33 µM | –
22 | Cc1cccc(C)c1OC(F)(F)c1nc2ccccc2o1 | > 200 | 30.2 µM | –

Row | SMILES | EC50 [µM] | IC50 | outcome
23 | CC(C)(C)OC(=O)CC(NC(=O)OC(C)(C)C)C(=O)N[C@@H]1CCCC[C@H]1C(=O)OCc1ccccc1 (stereo partly drawn) | > 200 | 10.5 µM | –
24 | CCC1CCC2c3c([nH]c4ccc(C)cc34)C3C(=O)N(N(C)C)C(=O)C3C2C1 (stereo not drawn) | > 200 | > 100 µM | –
25 | Cc1nc2c(=O)n(C)ncc2[nH]1 | > 200 | > 200 µM | –
26 | CC(C)C(OC(=O)c1cc(NC(=S)c2cccn2C)ccc1Cl)C(C)C | 0.234 | 18.2 µM | –
27 | CC(=O)N=C(N=Nc1c(O)[nH]c2ccc(C)cc12)NC(C)=O | > 200 | 148 µM | –
28 | O=c1ccn(C2CC(CO)C(CO)C2)c(=O)[nH]1 (stereo not drawn) | > 105 | > 105 µM | –
29 | O=C1c2ccccc2C(=O)N1OCCCCON1C(=O)c2ccccc2C1=O | > 200 | > 200 µM | –
30 | CC(C)(C)[Si](C)(C)OCC1OC(n2ccc(=O)[nH]c2=O)C(OC(=S)Oc2ccccc2)C1O[Si](C)(C)C(C)(C)C (stereo not drawn) | > 200 | 2 µM | –
31 | CCCCOC(=O)NC(=O)c1cc2cc(Cl)cc(Cl)c2oc1=O | > 13.8 | > 13.8 µM | –
32 | COC(=O)Cc1cccc2c1CCC2=O | > 200 | > 200 µM | –
33 | CCCOC(=O)c1ccc(N)cc1 | > 200 | > 200 µM | –
34 | CC/C=C\C/C=C\C/C=C\CCCCCCCC(=O)OCC(COC1OC(CS(=O)(=O)O)C(O)C(O)C1O)OC(=O)CCCCCCCCCCCCCCC (stereo not drawn) | > 10 | 5.62 µM | –
35 | C=CCN1C(=O)C/C(=C2/CCC(=O)N2CC=C)C1=O | > 955 | > 955 µM | –
36 | CC1(C)C2CCC3(C2)CS(=O)(=O)N2OC231 (stereo not drawn) | > 219 | 120 µM | –
37 | Cc1[nH]c(-c2ccccc2)c(O)c1C(=O)OC12CC3CC(CC(C3)C1)C2 | > 200 | 30.9 µM | –
38 | N#CC(N)c1ccc(OCCCCCCCCCCOc2ccc(C(N)C#N)cc2)cc1 (stereo not drawn) | > 200 | 115 µM | –
39 | O=C(NC(=Nc1ccccc1)SCCSC(=Nc1ccccc1)NC(=O)c1ccccc1)c1ccccc1 | > 18.6 | > 18.6 µM | –
40 | COc1ccc2c(c1)CCC1C3(CCCC21C=O)OCCO3 (stereo not drawn) | > 166 | > 166 µM | –
41 | O=c1ccc2nc3cc(Cl)ccc3sc-2c1 | > 8.13 | 2.19 µM | –
42 | COc1ccccc1NC(=S)N=Nc1c(O)[nH]c2ccccc12 | > 200 | 174 µM | –
43 | O=S1(=O)CCc2ccccc2C(Br)C1 (stereo not drawn) | > 200 | > 200 µM | –
44 | O=c1cccc2n1CC1CNCC2C1 (stereo not drawn) | > 200 | > 200 µM | –

Row | SMILES | EC50 [µM] | IC50 | outcome
45 | O=c1c2ccccc2nc2ccc3c(Cl)[nH][nH]c3c12 | – | – | inactive
46 | Cc1nnc(CC#N)n1NC(=O)CC#N | > 200 | > 200 µM | –
47 | CC(=O)Nc1cccc2[nH]c3ccccc3c(=O)c12 | – | – | inactive
48 | Cc1cc2c(ccc3c(C)cc(=O)oc32)o1 | – | – | inactive
49 | O=[N+]([O-])c1ccc(Nc2ccccc2)c2nonc12 | > 87.1 | 41.7 µM | –
50 | CC12CCC[C@@](C)(C(=O)O)[C@H]1CCC1=CC3(CCC12)SCCS3 (stereo partly drawn) | > 355 | 57.5 µM | –
51 | CC1(C)Oc2ccc3c(=O)cc(-c4ccccc4)oc3c2C1C(=O)O (stereo not drawn) | > 200 | > 200 µM | –
52 | O=C1CCS(=O)(=O)O1 | > 1820 | > 1820 µM | –
53 | CCCc1cc(=O)oc2c3c(cc(OC)c12)O[C@H](C)[C@@H](C)[C@@H]3O | > 200 | – | –
54 | CN(C)C(=S)/N=c1\ss/c(=N\C(=S)N(C)C)n1-c1ccccc1 | > 200 | 191 µM | –
55 | COC1(OC)CC2CCCCC2=C(C)N1S(=O)(=O)c1ccccc1 (stereo not drawn) | – | – | inactive
56 | O=C1C=CC[C@H](/C=C/C[C@@H](O)C[C@H](O)/C=C/c2ccccc2)O1 | > 200 | 5.37 µM | –
57 | Cn1c(=O)c2c(nc3n2CCCC(=O)N3CCCCl)n(C)c1=O | > 100 | > 100 µM | –
58 | Nc1ccc2[se]nc3c2c1C(=O)c1ccccc1-3 | > 6.76 | > 6.76 µM | –
59 | COc1ccc(C2=C(N)c3cc(OC)ccc3C2=O)cc1 | > 200 | > 200 µM | –
60 | CC1(c2cccc3c2C2(O)C=CC4(CCC32)OCCO4)OCCO1 (stereo not drawn) | 123 | 174 µM | –
61 | O=C1/C(=C/c2ccccc2)CN(C(=O)OCc2ccccc2)C/C1=C\c1ccccc1 | – | – | inactive
62 | CC(C)(C)[Si](C)(C)OCC1OC(n2ccc(=O)[nH]c2=O)C(C/C=[N+](/[O-])CC2OC(n3ccc(=O)[nH]c3=O)C(O[Si](C)(C)C(C)(C)C)C2O[Si](C)(C)C(C)(C)C)C1O[Si](C)(C)C(C)(C)C (stereo not drawn) | > 100 | 89.1 µM | –
63 | Cc1c(C(=O)CSc2nc3ccccc3c(=O)n2-c2ccccc2)c(=O)n(-c2ccccc2)n1C | > 5.62 | > 5.62 µM | –
64 | CC(C)(C)OC(=O)NC(Cc1ccc(O)cc1)C(=O)NC(CCCCN)C(=O)O (stereo not drawn) (Boc-Tyr-Lys-OH; configuration not given here) | > 200 | 91.2 µM | –
65 | Clc1ccc(C(c2ccc(Cl)cc2)c2cncnc2)cc1 | – | – | inactive
66 | Cc1ccc(Cc2nn(C)c(=O)n2-n2cccc2)cc1 | > 200 | 102 µM | –

Row | SMILES | EC50 [µM] | IC50 | outcome
67 | O=C1c2ccccc2C(=O)N1CCCC[P+](c1ccccc1)(c1ccccc1)c1ccccc1 | > 200 | 15.5 µM | –
68 | C[n+]1c2cc(N)ccc2cc2ccc(N)cc21 (tested in a mixture with another compound) | > 200 | 0.316 µM | –
69 | O=C(NC(N1CCN(c2cc3c(cc2F)c(=O)c(C(=O)O)cn3C2CC2)CC1)(C(F)(F)F)C(F)(F)F)c1ccccc1 | > 200 | 105 µM | –
70 | O=C1CCCC2=C1CC1=C(CCCC1=O)N2c1ccc([N+](=O)[O-])cc1 | > 200 | > 200 µM | –
71 | COC(=O)CC(=O)C[P+](c1ccccc1)(c1ccccc1)c1ccccc1 | > 550 | 42.7 µM | –
72 | Cc1[nH]nc2c1NC(=O)OC(C)C2 (stereo not drawn) | 132 | 490 µM | –
73 | CC(=O)Nc1cc2ccc(C)nc2c2nc(C)ccc12.CC(=O)Nc1cc2ccc(C)nc2c2nc(C)ccc12.O=C1OC(C(O)C[O-])C(O)=C1O.[Cu+] | > 12.6 | 2.09 µM | –
74 | CC[C@@H]1C[C@@H]2CN3CCc4c([nH]c5ccc(OC)cc45)C(COC(=O)c4ccc(OC)c(OC)c4)(C2)C13 | – | – | inactive
75 | COc1ccc(-c2nc3ccccc3s2)cc1S(=O)(=O)O | > 105 | 95.5 µM | –
76 | CC12CCC(=O)CC13CCC2OC(O)C3 (stereo not drawn) | – | – | inactive
77 | O=C(Nc1ccn(C2CC(O)C(COC(c3ccccc3)(c3ccccc3)c3ccccc3)O2)c(=O)n1)c1ccccc1 (stereo not drawn) | > 200 | 7.41 µM | –
78 | CC(=O)Nc1ccc(SC#N)c2c(NC(C)=O)cccc12 | – | – | inactive
79 | COC(=O)C(C(=O)Cc1ccccc1[N+](=O)[O-])C(=O)OC | > 251 | 102 µM | –
80 | CC(=O)OCCn1c(Cc2ccc(C)cc2)nn(C(C)=O)c1=O | > 200 | > 200 µM | –
81 | O=C(Nc1ccc(C2=NCCCN2)cc1)c1ccc(NC(=O)c2ccc(C3=NCCCN3)cc2)cc1 | > 200 | 67.6 µM | –
82 | COc1ccc(-c2cc(-c3ccccc3)c3ccccc3n2)c(OC)c1OC | > 200 | > 200 µM | –
83 | CC(C)(C)NNC(=O)/C(=C/c1ccc(Oc2ccc(Cl)c(Cl)c2)cc1)NC(=O)c1ccccc1 | > 5.5 | > 5.5 µM | –
84 | O=c1[nH]cnc2c1ncn2Cc1ccccc1CCO | > 93.3 | > 93.3 µM | –
85 | Nc1nc2c(c(=O)[nH]1)N=C(COP(=O)(O)OP(=O)(O)O)CN2 | > 200 | 145 µM | –
86 | NCCN(CCN(C(=O)Nc1ccccc1)c1ccccc1)C(=O)Nc1ccccc1 | > 200 | 35.5 µM | –
87 | COc1ccc(NC(=O)c2oc3cc(O)ccc3c(=O)c2C)c([N+](=O)[O-])c1 | > 676 | 245 µM | –

— PubChem BioAssay AID179 (DTP/NCI, 2004)
